Experimental findings from PubChem BioAssay AID434987 (Southern Research Specialized Biocontainment Screening …, 2010) are described below.

The test system of the experiment is M. tuberculosis H37Rv growth inhibition with meropenem. Briefly: dose response, H37Rv, with and without meropenem (AID 434987).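 Further: growth over 7 days at 37 °C before Alamar Blue read on day 9.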
Where [1] appears, read: M. tuberculosis H37Rv growth inhibition, measured here: IC50 without meropenem.
[2] abbreviates: M. tuberculosis H37Rv growth inhibition, measured here: IC90 without meropenem.
Where [3] appears, read: measured here: IC90 with meropenem.

pIC50: −log10 of the molar value. Active and inactive are the calls of the source. How the calls were made is not given here. Bounds are passed on as bounds.

By IC50 is commonly meant the concentration that inhibits the measured activity by half. By pIC50 is commonly meant −log10 of the IC50, conventionally taken in molar units. What is called IC90 is the concentration needed for an effect of 90%. On to `COc1ccc([N+](=O)[O-])cc1C1NN=C(c2ccccc2O)S1` (configuration not stated), for which the IC50 was > 100 µM (inactive). The molecule also gave a pIC50 under setting [1] of less than 4.00. Under setting [2], this molecule yielded an IC90 greater than 100 µM. Also, under setting [3], the IC90 is greater than 100 µM.

`CCOC(=O)c1ccc(NC(=O)Cc2coc3cc4c(cc23)CCC4)cc1`: the IC50 was > 100 µM (inactive). For the same molecule, the pIC50 under setting [1] is less than 4.00. Further, the IC90 under setting [2] was greater than 100 µM. Also, under setting [3], the IC90 is greater than 100 µM.

On to `O=C(/C=C/c1ccccc1[N+](=O)[O-])c1ccc(F)cc1`, for which the pIC50 was 4.70. Under setting [1], this molecule showed a pIC50 of 4.03. Under setting [2], this molecule yielded a 90% effect concentration (IC90) greater than 100 µM. This molecule yielded an IC90 under setting [3] greater than 100 µM.

In the case of `CSc1ccc(/C=C/C(=O)NC23CC4CC(CC(C4)C2)C3)cc1`, the pIC50 was 5.30. Under setting [1], the pIC50 was 4.57. The IC90 under setting [2] was greater than 100 µM. The molecule further yielded an IC90 under setting [3] of 16.1 µM.

For the molecule `O=C1O/C(=C/c2ccccc2)N=C1c1ccccc1`, the negative logarithm of the IC50 (pIC50) is 5.87. Under setting [1], this molecule gave a pIC50 of 4.77. The IC90 under setting [2] is greater than 100 µM. Under setting [3], this molecule registered an IC90 of 28.3 µM.

On to `c1ccc(-c2cc(N3CCOCC3)nc3ccccc23)cc1`, for which the negative logarithm of the IC50 (pIC50) is 5.56. The pIC50 under setting [1] was less than 4.00. In addition, the IC90 under setting [2] was greater than 100 µM. Also, under setting [3], the IC90 was 91.5 µM.

Consider `O=c1oc(-c2cccs2)nc2sc3c(c12)CCC3`, for which the IC50 was 93 µM (inactive). The pIC50 under setting [1] is less than 4.00. Under setting [2], this molecule showed an IC90 greater than 100 µM. This molecule yielded an IC90 under setting [3] greater than 100 µM.

On to `Cc1ccccc1OCC(=O)Nc1ccccc1-c1ccccc1`, for which the pIC50 was 5.22. The same molecule had a pIC50 under setting [1] of less than 4.00. Under setting [2], this molecule had an IC90 greater than 100 µM. Under setting [3], this molecule returned an IC90 greater than 100 µM.

Turning to `COc1ccc(NC(=O)CCn2c(=O)c3cccn3c3ccccc32)cc1`, the IC50 was > 100 µM (inactive). This molecule gave a pIC50 under setting [1] of less than 4.00. Besides, the IC90 under setting [2] is greater than 100 µM. This molecule also came in with a 90% effect concentration (IC90) under setting [3] greater than 100 µM.

Consider `CC[C@@](C)(NS(=O)(=O)OCC(Cl)(Cl)Cl)c1ccccc1`, for which the IC50 is 50.1 µM (inactive). The pIC50 under setting [1] was 4.02. Also, the IC90 under setting [2] was greater than 100 µM. The molecule also displayed an IC90 under setting [3] of 54.8 µM.

Regarding `CC(=O)COc1ccc2c3c(c(=O)oc2c1C)CCCCC3`, the IC50 was > 100 µM (inactive). For the same molecule, the pIC50 under setting [1] was less than 4.00. For the same molecule, the IC90 under setting [2] was greater than 100 µM. Under setting [3], this molecule displayed an IC90 greater than 100 µM.

As for `COCCNC(=S)N/N=C1\CC(C)CC(C)(C)C1` (configuration not stated), the IC50 is 24.5 µM (inactive). For the same molecule, the negative-log IC50 (pIC50) under setting [1] is 4.49. Besides, the IC90 under setting [2] was determined as 41.1 µM. Also, the 90% effect concentration (IC90) under setting [3] turned out to be 27.5 µM.

Consider `CCOC(=O)[C@H]1[C@H]2COc3ccc(Br)cc3[C@@H]2N2C(=O)c3cc(OC)c(OC)cc3NC(=O)[C@@]12C`, for which the IC50 was > 50 µM (inactive). The molecule further gave a negative-log IC50 (pIC50) under setting [1] of 4.09. Besides, the IC90 under setting [2] is greater than 100 µM. Under setting [3], the IC90 was greater than 50 µM.

With `CCC(C)Nc1c2c(nc3c(-c4ccccc4)c(C)nn13)CCC2` (configuration not stated), the IC50 was > 100 µM (inactive). This molecule had a negative logarithm of the IC50 (pIC50) under setting [1] of less than 4.00. Under setting [2], this molecule showed an IC90 greater than 100 µM. For the same molecule, the IC90 under setting [3] was greater than 100 µM.

With `CC(=O)c1c(C)[nH]c(C(=O)OCC(=O)Nc2nnc(-c3ccccc3)o2)c1C`, the pIC50 was 5.38. Under setting [1], this molecule gave a pIC50 of less than 4.00. In addition, the IC90 under setting [2] is greater than 100 µM. Moreover, under setting [3], the IC90 is greater than 100 µM.

With `CN(C)CC(=O)Nc1nc(-c2ccccc2)cs1`, the pIC50 is 4.98. Moreover, under setting [1], the pIC50 is 4.08. The same molecule came in with an IC90 under setting [2] greater than 100 µM. Moreover, the IC90 under setting [3] is greater than 100 µM.

In the case of `CN1CCN(c2ccccc2NC(=O)c2ccc(-c3ccc(Cl)c(Cl)c3)o2)CC1`, the pIC50 was 5.13. Under setting [1], this molecule gave a negative logarithm of the IC50 (pIC50) of 4.50. Under setting [2], this molecule returned an IC90 greater than 100 µM. For the same molecule, the IC90 under setting [3] was greater than 100 µM.

`CC#CC[N+](C)(C)CCCCCCCCCCCC`: the IC50 was 49 µM (inactive). Further, the pIC50 under setting [1] was 4.14. The molecule also had a 90% effect concentration (IC90) under setting [2] greater than 100 µM. Also, the IC90 under setting [3] was greater than 100 µM.

For the molecule `Cc1ccc(OC(=O)COc2ccccc2)c(-n2nc3ccccc3n2)c1`, the IC50 was > 100 µM (inactive). Besides, the pIC50 under setting [1] is less than 4.00. This molecule also showed an IC90 under setting [2] greater than 100 µM. Moreover, under setting [3], the IC90 is greater than 100 µM.

In the case of `COc1ccc(Cl)cc1NC(=O)NNC(=O)c1ccccn1`, the IC50 is 41.1 µM (inactive). Also, the pIC50 under setting [1] is less than 4.00. Besides, under setting [2], the IC90 is greater than 100 µM. This molecule also came in with a 90% effect concentration (IC90) under setting [3] greater than 100 µM.

Consider `CC(C)(C)c1nc2scc(-c3cccs3)c2c(=O)o1`, for which the IC50 is > 100 µM (inactive). Under setting [1], the pIC50 was less than 4.00. Also, the IC90 under setting [2] was greater than 100 µM. For the same molecule, the IC90 under setting [3] is greater than 100 µM.

As for `C=CCNC(=S)NC(=O)c1csc([N+](=O)[O-])c1`, the IC50 was 27.8 µM (inactive). The same molecule showed a pIC50 under setting [1] of 4.31. Moreover, under setting [2], the IC90 is greater than 50 µM. This molecule came in with an IC90 under setting [3] greater than 100 µM.

For `COc1ccc(CNC(=O)c2sc3nc4c(c(C(F)(F)F)c3c2N)CCC4)cc1`, the IC50 is 7.76 µM (inactive). The pIC50 under setting [1] was 4.98. Moreover, the IC90 under setting [2] was greater than 25 µM. Also, under setting [3], the IC90 was greater than 100 µM.
